The text below walks through data of patent US9624209B2, “Substituted phenylureas and phenylamides as vanilloid receptor ligands” (Gruenenthal GmbH, priority 2009, dated 2017).

The target in this assay is T1, vanilloid receptor 1 (VR1/TRPV1 receptor) (Homo sapiens, UniProt Q8NER1).
T1 construct: expressed in transfected cells; host or cells: CHO K1 cells (ECACC), stably transfected
Put plainly: VR1/TRPV1 receptor affinity, capsaicin stimulus (human). The format is cell-based, human being. The settings on record: for Ki: Tables 8-12, read-out: (f) Ki (human being) [nM] Cap; for inhibition at 5 µM: Tables 8-12, read-out: (f) Ki (human being) [nM] Cap: inhibition (as a percentage).

T1 sequence (Q8NER1 whole entry): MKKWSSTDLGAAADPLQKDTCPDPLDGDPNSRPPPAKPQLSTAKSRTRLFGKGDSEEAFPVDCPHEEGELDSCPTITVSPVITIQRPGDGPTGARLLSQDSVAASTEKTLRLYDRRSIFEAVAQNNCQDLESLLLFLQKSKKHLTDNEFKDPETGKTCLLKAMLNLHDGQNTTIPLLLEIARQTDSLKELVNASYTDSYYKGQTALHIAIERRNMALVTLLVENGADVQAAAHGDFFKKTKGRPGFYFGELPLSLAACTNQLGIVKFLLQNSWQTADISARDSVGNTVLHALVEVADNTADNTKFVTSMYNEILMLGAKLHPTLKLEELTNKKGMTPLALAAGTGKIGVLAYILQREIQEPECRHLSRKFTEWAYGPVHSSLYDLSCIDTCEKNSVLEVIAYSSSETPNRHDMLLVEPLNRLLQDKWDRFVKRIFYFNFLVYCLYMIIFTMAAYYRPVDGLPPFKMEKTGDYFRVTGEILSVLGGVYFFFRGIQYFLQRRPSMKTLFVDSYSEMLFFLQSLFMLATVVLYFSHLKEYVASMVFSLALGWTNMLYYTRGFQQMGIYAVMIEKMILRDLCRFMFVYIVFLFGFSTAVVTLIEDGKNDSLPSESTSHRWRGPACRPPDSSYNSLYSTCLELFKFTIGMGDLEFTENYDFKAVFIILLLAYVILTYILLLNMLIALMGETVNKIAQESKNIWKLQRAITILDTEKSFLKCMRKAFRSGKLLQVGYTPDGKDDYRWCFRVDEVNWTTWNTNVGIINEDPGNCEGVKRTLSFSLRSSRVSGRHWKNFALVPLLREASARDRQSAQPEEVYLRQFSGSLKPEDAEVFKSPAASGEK

The Ki is a dissociation constant, usually derived from enzyme kinetics or from competition with a known ligand. Consider `CC(C)c1cccc(-n2nc(C(F)(F)F)cc2CNC(=O)C(C)c2ccc(CNS(C)(=O)=O)c(F)c2)c1` (centres unmarked) [Example B82, 2-[3-Fluoro-4-(methanesulfonamido-methyl)-phenyl]-N-[[2-(3-isopropyl-phenyl)-5-(trifluoromethyl)-2H-pyrazol-3-yl]-methyl]-propionamide], for which the Ki is 0.8 nM. Take `CC(C)c1cccc(-n2nc(C(F)(F)F)cc2CNC(=O)Nc2ccc(CNS(C)(=O)=O)cc2)c1` [Example B83, 1-[[2-(3-isopropyl-phenyl)-5-(trifluoromethyl)-2H-pyrazol-3-yl]-methyl]-3-[4-(methanesulfonamido-methyl)-phenyl]-urea]: the Ki is 3 nM. Same read-out and setting: the result for `CCS(=O)(=O)NCc1ccc(NC(=O)NCc2cc(C(F)(F)F)nn2-c2cccc(Cl)c2)cc1` [Example B84, 1-[[2-(3-Chlorophenyl)-5-(trifluoromethyl)-2H-pyrazol-3-yl]-methyl]-3-[4-[[(ethylsulfonyl)amino]-methyl]-phenyl]-urea] reads 53 nM; that for `CCS(=O)(=O)NCc1ccc(NC(=O)NCc2cc(C(C)(C)C)nn2-c2cccc(Cl)c2)cc1` [Example B85, 1-[[5-tert-Butyl-2-(3-chlorophenyl)-2H-pyrazol-3-yl]-methyl]-3-[4-[[(ethylsulfonyl)amino]-methyl]-phenyl]-urea], 16 nM; that for `COc1cc(NC(=O)NCc2cc(C(F)(F)F)nn2-c2cccc(C)c2)ccc1CNS(C)(=O)=O` [Example B86, 1-[4-(Methanesulfonamido-methyl)-3-methoxy-phenyl]-3-[[2-(m-tolyl)-5-(trifluoromethyl)-2H-pyrazol-3-yl]-methyl]-urea], 93 nM. Still for that read-out and setting: the same measure for `Cc1cccc(-n2nc(C(F)(F)F)cc2CNC(=O)Nc2ccc(CNS(C)(=O)=O)c(F)c2)c1` [Example B87, 1-[3-Fluoro-4-(methanesulfonamido-methyl)-phenyl]-3-[[2-(m-tolyl)-5-(trifluoromethyl)-2H-pyrazol-3-yl]-methyl]-urea]: 15 nM; for `Cc1cccc(-n2nc(C(C)(C)C)cc2CNC(=O)C(C)c2ccc(CNS(C)(=O)=O)c(F)c2)c1` (centres unmarked) [Example B88, N-[[5-tert-Butyl-2-(m-tolyl)-2H-pyrazol-3-yl]-methyl]-2-[3-fluoro-4-(methanesulfonamido-methyl)-phenyl]-propionamide]: 29 nM; for `Cc1cccc(-n2nc(C(F)(F)F)cc2CNC(=O)Nc2ccc(CNS(C)(=O)=O)cc2)c1` [Example B89, 1-[4-(Methanesulfonamido-methyl)-phenyl]-3-[[2-(m-tolyl)-5-(trifluoromethyl)-2H-pyrazol-3-yl]-methyl]-urea]: 24 nM.

Consider `Cc1cccc(-n2nc(C(C)(C)C)cc2CNC(=O)Nc2ccc(CNS(C)(=O)=O)cc2)c1` [Example B90, 1-[[5-tert-Butyl-2-(m-tolyl)-2H-pyrazol-3-yl]-methyl]-3-[4-(methanesulfonamido-methyl)-phenyl]-urea], for which the Ki worked out at 12 nM. On the same count and under the same terms, the same measure for `CCS(=O)(=O)NCc1ccc(NC(=O)NCc2cc(C(F)(F)F)nn2-c2cccc(C)c2)cc1` [Example B91, 1-[4-[[(Ethylsulfonyl)amino]-methyl]-phenyl]-3-[[2-(m-tolyl)-5-(trifluoromethyl)-2H-pyrazol-3-yl]-methyl]-urea]: 57 nM; for `CCS(=O)(=O)NCc1ccc(NC(=O)NCc2cc(C(C)(C)C)nn2-c2cccc(C)c2)cc1` [Example B92, 1-[[5-tert-Butyl-2-(m-tolyl)-2H-pyrazol-3-yl]-methyl]-3-[4-[[(ethylsulfonyl)amino]-methyl]-phenyl]-urea]: 67 nM; for `CC(C(=O)NCc1cc(C(C)(C)C)nn1-c1cccc(Cl)c1)c1ccc(CNS(N)(=O)=O)c(F)c1` (centres unmarked) [Example B93, N-[[5-tert-Butyl-2-(3-chlorophenyl)-2H-pyrazol-3-yl]-methyl]-2-[3-fluoro-4-[(sulfamoylamino)-methyl]-phenyl]-propionamide]: 4 nM.

On to `CC(C)c1cccc(-n2nc(C(F)(F)F)cc2CNC(=O)C(C)c2ccc(CNS(N)(=O)=O)c(F)c2)c1` (centres unmarked) [Example B94, 2-[3-Fluoro-4-[(sulfamoylamino)-methyl]-phenyl]-N-[[2-(3-isopropyl-phenyl)-5-(trifluoromethyl)-2H-pyrazol-3-yl]-methyl]-propionamide], for which the Ki was found to be 0.9 nM. The same measure, in the same setting: the result for `CC(C(=O)NCc1cc(C2CC2)nn1-c1cccc(Cl)c1)c1ccc(CNS(N)(=O)=O)c(F)c1` (centres unmarked) [Example B95, N-[[2-(3-Chlorophenyl)-5-cyclopropyl-2H-pyrazol-3-yl]-methyl]-2-[3-fluoro-4-[(sulfamoylamino)-methyl]-phenyl]-propionamide] reads 22 nM; that for `CC(C(=O)NCc1cc(C(C)(C)C)nn1-c1ccc(F)c(Cl)c1)c1ccc(CNS(N)(=O)=O)c(F)c1` (centres unmarked) [Example B96, N-[[5-tert-Butyl-2-(3-chloro-4-fluoro-phenyl)-2H-pyrazol-3-yl]-methyl]-2-[3-fluoro-4-[(sulfamoylamino)-methyl]-phenyl]-propionamide], 0.9 nM. On the same count and under the same terms, the same measure for `CC(C(=O)NCc1cc(C(F)(F)F)nn1-c1cccc(Cl)c1)c1ccc(CNS(N)(=O)=O)c(F)c1` (centres unmarked) [Example B97, N-[[2-(3-Chlorophenyl)-5-(trifluoromethyl)-2H-pyrazol-3-yl]-methyl]-2-[3-fluoro-4-[(sulfamoylamino)-methyl]-phenyl]-propionamide]: 1 nM; for `COc1cc(C(C)C(=O)NCc2cc(C(C)(C)C)nn2-c2cccc(Cl)c2)ccc1CNS(C)(=O)=O` (centres unmarked) [Example B98, N-[[5-tert-Butyl-2-(3-chlorophenyl)-2H-pyrazol-3-yl]-methyl]-2-[4-(methanesulfonamido-methyl)-3-methoxy-phenyl]-propionamide]: 3 nM.

By inhibition is commonly meant the share of the control response that was lost under treatment. On to `O=C(NCc1cc(C(F)(F)F)nn1-c1cccc(Cl)c1)Nc1ccc(CN2CCCC2)cc1` [Example B99, 1-[[2-(3-Chlorophenyl)-5-(trifluoromethyl)-2H-pyrazol-3-yl]-methyl]-3-[4-(pyrrolidin-1-yl-methyl)-phenyl]-urea], for which the inhibition at 5 µM worked out at 43%. For the molecule `O=C(NCc1cc(C(F)(F)F)nn1-c1cccc(Cl)c1)Nc1ccc(CN2CCCCC2)c(F)c1` [Example B100, 1-[[2-(3-Chlorophenyl)-5-(trifluoromethyl)-2H-pyrazol-3-yl]-methyl]-3-[3-fluoro-4-(piperidin-1-yl-methyl)-phenyl]-urea], the inhibition at 5 µM stood at 17%. On the same count and under the same terms, the same measure for `CC(C)(C)c1cc(CNC(=O)Nc2ccc(CN3CCCC3)c(F)c2)n(-c2cccc(Cl)c2)n1` [Example B101, 1-[[5-tert-Butyl-2-(3-chlorophenyl)-2H-pyrazol-3-yl]-methyl]-3-[3-fluoro-4-(pyrrolidin-1-yl-methyl)-phenyl]-urea]: 43%. With `CC(C(=O)NCc1cc(C(F)(F)F)nn1-c1cccc(Cl)c1)c1ccc(CNS(N)(=O)=O)cc1` (centres unmarked) [Example B102, N-[[2-(3-Chlorophenyl)-5-(trifluoromethyl)-2H-pyrazol-3-yl]-methyl]-2-[4-[(sulfamoylamino)-methyl]-phenyl]-propionamide], the inhibition constant Ki stood at 1 nM. Still for that read-out and setting: the result for `CC(C(=O)NCc1cc(C(C)(C)C)nn1-c1cccc(Cl)c1)c1ccc(CNS(N)(=O)=O)cc1` (centres unmarked) [Example B103, N-[[5-tert-Butyl-2-(3-chlorophenyl)-2H-pyrazol-3-yl]-methyl]-2-[4-[(sulfamoylamino)-methyl]-phenyl]-propionamide] reads 0.7 nM; that for `CC(C(=O)NCc1cc(C(F)(F)F)nn1-c1cccc(Cl)c1)c1ccc(N2CCCS2(=O)=O)c(F)c1` (centres unmarked) [Example C1, N-[[2-(3-Chlorophenyl)-5-(trifluoromethyl)-2H-pyrazol-3-yl]-methyl]-2-[4-(1,1-dioxo-[1,2]thiazolidin-2-yl)-3-fluoro-phenyl]-propionamide], 49 nM; that for `CC(C(=O)NCc1cc(C(C)(C)C)nn1-c1ccc(F)c(Cl)c1)c1ccc(N2CCCS2(=O)=O)c(F)c1` (centres unmarked) [Example C2, N-[[5-tert-Butyl-2-(3-chloro-4-fluoro-phenyl)-2H-pyrazol-3-yl]-methyl]-2-[4-(1,1-dioxo-[1,2]thiazolidin-2-yl)-3-fluoro-phenyl]-propionamid], 50 nM.

As to `CC(C(=O)NCc1cc(C(F)(F)F)nn1-c1ccc(F)c(F)c1)c1ccc(N2CCCS2(=O)=O)c(F)c1` (centres unmarked) [Example C3, N-[[2-(3,4-Difluoro-phenyl)-5-(trifluoromethyl)-2H-pyrazol-3-yl]-methyl]-2-[4-(1,1-dioxo-[1,2]thiazolidin-2-yl)-3-fluoro-phenyl]-propionamide], the inhibition at 5 µM amounted to 54%. In the case of `O=C(NCc1cc(C(F)(F)F)nn1-c1cccc(F)c1)Nc1ccc(N2CCCC2)c(F)c1` [Example C4, 1-[[2-(3-Fluorophenyl)-5-(trifluoromethyl)-2H-pyrazol-3-yl]-methyl]-3-(3-fluoro-4-pyrrolidin-1-yl-phenyl)-urea], the inhibition at 5 µM came out at 13%. Turning to `O=C(NCc1cc(C(F)(F)F)nn1-c1cccc(Cl)c1)Nc1ccc(N2CCOCC2)c(F)c1` [Example C5, 1-[[2-(3-Chlorophenyl)-5-(trifluoromethyl)-2H-pyrazol-3-yl]-methyl]-3-(3-fluoro-4-morpholin-4-yl-phenyl)-urea], the Ki was 44 nM.

For `O=C(NCc1cc(C(F)(F)F)nn1-c1cccc(Cl)c1)Nc1ccc(N2CC(O)C2)c(F)c1` [Example C6, 1-[[2-(3-Chlorophenyl)-5-(trifluoromethyl)-2H-pyrazol-3-yl]-methyl]-3-[3-fluoro-4-(3-hydroxy-azetidin-1-yl)-phenyl]-urea], the Ki was 43 nM. As to `CC(C)(C)c1cc(CNC(=O)Nc2ccc(N3CC(O)C3)c(F)c2)n(-c2cccc(Cl)c2)n1` [Example C7, 1-[[5-tert-Butyl-2-(3-chlorophenyl)-2H-pyrazol-3-yl]-methyl]-3-[3-fluoro-4-(3-hydroxy-azetidin-1-yl)-phenyl]-urea], the Ki was found to be 15 nM.
